Source: PubChem BioAssay (NCI)
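Assay format: 96-well plates, 48-hour exposure. At the GI50, growth is halved. TGI: concentration producing complete growth inhibition.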

Key:
Test in all cases: DTP human tumour cell line panel, 48 h
OVCAR-4 ovarian = tested on: OVCAR-4 ovarian
A549 NSCLC = tested on: A549 NSCLC
UACC-257 melanoma = tested on: UACC-257 melanoma
BT-549 breast = tested on: BT-549 breast
EKVX NSCLC = tested on: EKVX NSCLC
SF-295 CNS = tested on: SF-295 CNS
ACHN renal = tested on: ACHN renal
SK-MEL-28 melanoma = tested on: SK-MEL-28 melanoma
NCI-H522 lung = tested on: NCI-H522 lung
HOP-62 NSCLC = tested on: HOP-62 NSCLC
NCI-H226 lung = tested on: NCI-H226 lung
MDA-MB-468 breast = tested on: MDA-MB-468 breast
786-0 renal = tested on: 786-0 renal
SNB-19 CNS = tested on: SNB-19 CNS
IGROV1 ovarian = tested on: IGROV1 ovarian
SW-620 colon = tested on: SW-620 colon
SR leukemia = tested on: SR leukemia
K-562 leukemia = tested on: K-562 leukemia
MCF7 breast = tested on: MCF7 breast
HOP-92 NSCLC = tested on: HOP-92 NSCLC
DU-145 prostate = tested on: DU-145 prostate
RXF 393 renal = tested on: RXF 393 renal
HCT-15 colon = tested on: HCT-15 colon
NCI-H460 lung = tested on: NCI-H460 lung
HT29 colon = tested on: HT29 colon
PC-3 prostate = tested on: PC-3 prostate
OVCAR-3 ovarian = tested on: OVCAR-3 ovarian
HCT-116 colon = tested on: HCT-116 colon
SK-MEL-2 melanoma = tested on: SK-MEL-2 melanoma
LOX IMVI melanoma = tested on: LOX IMVI melanoma
NCI/ADR-RES ovarian = tested on: NCI/ADR-RES ovarian
SF-539 CNS = tested on: SF-539 CNS
MOLT-4 leukemia = tested on: MOLT-4 leukemia
TK-10 renal = tested on: TK-10 renal
A498 renal = tested on: A498 renal
COLO 205 colon = tested on: COLO 205 colon
M14 melanoma = tested on: M14 melanoma
U251 CNS = tested on: U251 CNS
OVCAR-5 ovarian = tested on: OVCAR-5 ovarian
SK-MEL-5 melanoma = tested on: SK-MEL-5 melanoma
KM12 colon = tested on: KM12 colon
SNB-75 CNS = tested on: SNB-75 CNS
CCRF-CEM leukemia = tested on: CCRF-CEM leukemia
HCC-2998 colon = tested on: HCC-2998 colon
UACC-62 melanoma = tested on: UACC-62 melanoma
UO-31 renal = tested on: UO-31 renal
HS 578T breast = tested on: HS 578T breast
OVCAR-8 ovarian = tested on: OVCAR-8 ovarian
SF-268 CNS = tested on: SF-268 CNS
SN12C renal = tested on: SN12C renal
MDA-MB-435 = tested on: MDA-MB-435
SK-OV-3 ovarian = tested on: SK-OV-3 ovarian
CAKI-1 renal = tested on: CAKI-1 renal
NCI-H23 lung = tested on: NCI-H23 lung
MALME-3M melanoma = tested on: MALME-3M melanoma
T-47D breast = tested on: T-47D breast
MDA-MB-231 breast = tested on: MDA-MB-231 breast
HL-60(TB) leukemia = tested on: HL-60(TB) leukemia
RPMI-8226 leukemia = tested on: RPMI-8226 leukemia

SMILES: CC(Nc1ncnc2ccc(-c3ccc4oc(N)nc4c3)cc12)c1ccccc1 (stereo not drawn)
- GI50 (OVCAR-4 ovarian): 2.14 µM
- TGI (OVCAR-4 ovarian): 5.16 µM
- GI50 (A549 NSCLC): 2.75 µM
- TGI (A549 NSCLC): 18.2 µM
- GI50 (UACC-257 melanoma): 5.23 µM
- TGI (UACC-257 melanoma): 39.5 µM
- GI50 (BT-549 breast): 2.62 µM
- TGI (BT-549 breast): 11.3 µM
- GI50 (EKVX NSCLC): 2.73 µM
- TGI (EKVX NSCLC): 18.5 µM
- GI50 (SF-295 CNS): 2.82 µM
- TGI (SF-295 CNS): 12.9 µM
- GI50 (ACHN renal): 1.84 µM
- TGI (ACHN renal): 4.92 µM
- GI50 (SK-MEL-28 melanoma): 3.54 µM
- TGI (SK-MEL-28 melanoma): 15.1 µM
- GI50 (NCI-H522 lung): 2.83 µM
- TGI (NCI-H522 lung): 13.4 µM
- GI50 (HOP-62 NSCLC): 1.63 µM
- TGI (HOP-62 NSCLC): 4.68 µM
- GI50 (NCI-H226 lung): 1.87 µM
- TGI (NCI-H226 lung): 6.21 µM
- GI50 (MDA-MB-468 breast): 1.07 µM
- TGI (MDA-MB-468 breast): 2.8 µM
- GI50 (786-0 renal): 2.19 µM
- TGI (786-0 renal): 8.59 µM
- GI50 (SNB-19 CNS): 3.13 µM
- TGI (SNB-19 CNS): 14.6 µM
- GI50 (IGROV1 ovarian): 1.45 µM
- TGI (IGROV1 ovarian): 3.75 µM
- GI50 (SW-620 colon): 4.42 µM
- TGI (SW-620 colon): 18.9 µM
- GI50 (SR leukemia): 2.9 µM
- TGI (SR leukemia): 10.3 µM
- GI50 (K-562 leukemia): 3.89 µM
- TGI (K-562 leukemia): 15.5 µM
- GI50 (MCF7 breast): 1.59 µM
- TGI (MCF7 breast): 3.57 µM
- GI50 (HOP-92 NSCLC): 2.02 µM
- TGI (HOP-92 NSCLC): 5.62 µM
- GI50 (DU-145 prostate): 2.91 µM
- TGI (DU-145 prostate): 15.6 µM
- GI50 (RXF 393 renal): 1.98 µM
- TGI (RXF 393 renal): 5.87 µM
- GI50 (HCT-15 colon): 2.85 µM
- TGI (HCT-15 colon): 11.7 µM
- GI50 (NCI-H460 lung): 2.34 µM
- TGI (NCI-H460 lung): 5.91 µM
- GI50 (HT29 colon): 4.94 µM
- TGI (HT29 colon): > 100 µM
- GI50 (PC-3 prostate): 4.52 µM
- TGI (PC-3 prostate): 17.1 µM
- GI50 (OVCAR-3 ovarian): 1.67 µM
- TGI (OVCAR-3 ovarian): 3.35 µM
- GI50 (HCT-116 colon): 2.06 µM
- TGI (HCT-116 colon): 4.78 µM
- GI50 (SK-MEL-2 melanoma): 19.5 µM
- TGI (SK-MEL-2 melanoma): 41.7 µM
- GI50 (LOX IMVI melanoma): 1.62 µM
- TGI (LOX IMVI melanoma): 3 µM
- GI50 (NCI/ADR-RES ovarian): 3.1 µM
- TGI (NCI/ADR-RES ovarian): 11.5 µM
- GI50 (SF-539 CNS): 1.91 µM
- TGI (SF-539 CNS): 4.78 µM
- GI50 (MOLT-4 leukemia): 2.67 µM
- TGI (MOLT-4 leukemia): 10.4 µM
- GI50 (TK-10 renal): 1.57 µM
- TGI (TK-10 renal): 5.51 µM
- GI50 (A498 renal): 2.3 µM
- TGI (A498 renal): 17.3 µM
- GI50 (COLO 205 colon): 5.3 µM
- TGI (COLO 205 colon): > 100 µM
- GI50 (M14 melanoma): 4.97 µM
- TGI (M14 melanoma): 42.4 µM
- GI50 (U251 CNS): 2.8 µM
- TGI (U251 CNS): 11.6 µM
- GI50 (OVCAR-5 ovarian): 3.49 µM
- TGI (OVCAR-5 ovarian): 18.7 µM
- GI50 (SK-MEL-5 melanoma): 2.15 µM
- TGI (SK-MEL-5 melanoma): 5.88 µM
- GI50 (KM12 colon): 4.27 µM
- TGI (KM12 colon): 29 µM
- GI50 (SNB-75 CNS): 1.45 µM
- TGI (SNB-75 CNS): 3.61 µM
- GI50 (CCRF-CEM leukemia): 2.34 µM
- TGI (CCRF-CEM leukemia): 10.2 µM
- GI50 (HCC-2998 colon): 3.59 µM
- TGI (HCC-2998 colon): 15.8 µM
- GI50 (UACC-62 melanoma): 3.26 µM
- TGI (UACC-62 melanoma): 11.8 µM
- GI50 (UO-31 renal): 1.37 µM
- TGI (UO-31 renal): 4.16 µM
- GI50 (HS 578T breast): 2.04 µM
- TGI (HS 578T breast): 5.86 µM
- GI50 (OVCAR-8 ovarian): 2.96 µM
- TGI (OVCAR-8 ovarian): 12.6 µM
- GI50 (SF-268 CNS): 3.91 µM
- TGI (SF-268 CNS): 54.7 µM
- GI50 (SN12C renal): 2.4 µM
- TGI (SN12C renal): 7.26 µM
- GI50 (MDA-MB-435): 3.84 µM
- TGI (MDA-MB-435): 19.5 µM
- GI50 (SK-OV-3 ovarian): 2.65 µM
- TGI (SK-OV-3 ovarian): 8.56 µM
- GI50 (CAKI-1 renal): 3.52 µM
- TGI (CAKI-1 renal): 17.1 µM
- GI50 (NCI-H23 lung): 3.53 µM
- TGI (NCI-H23 lung): 14.5 µM
- GI50 (MALME-3M melanoma): 1.7 µM
- TGI (MALME-3M melanoma): 3.44 µM
- GI50 (T-47D breast): 4.06 µM
- TGI (T-47D breast): 26 µM
- GI50 (MDA-MB-231 breast): 2.59 µM
- TGI (MDA-MB-231 breast): 6.92 µM
- GI50 (HL-60(TB) leukemia): 1.87 µM
- TGI (HL-60(TB) leukemia): 5 µM
- GI50 (RPMI-8226 leukemia): 2.47 µM
- TGI (RPMI-8226 leukemia): 13.3 µM
